2 molecules from patent US7294689B2, “Agonist polypeptide of receptor for Zot and Zonulin” (University of Maryland, Baltimore, priority 2003, dated 2007) can be followed below.

One assay relates to PAR-2. The assay can be described thus: FZI/0-PAR-2 AP competitive binding experiments in Caco2 cells. Also noted: species or system human. The settings on record: FITC-FZI/0 2×10^−8M, competitor 100× excess (10^−6M). On the procedure:
FIGS. 4A-4D. FZI/0-PAR-2 AP competitive binding experiments.
FZI/0—PAR-2 AP competitive binding experiments. The activation of PAR-2 requires binding of either its tryptase-generated, cleaved N-terminal portion or the synthetic peptide equivalent, PAR-2 AP, to the receptor's extracellular loop 2 (ECL2) (47). To establish whether FZI/0 binds to the same receptor domain, competitive binding experiments were conducted in Caco2 cells. Cell monolayers were incubated with FITC-FZI/0 (2×10^−8M)) either in the presence of an excess of PAR-2 AP (10^−6M) or a scrambled peptide and then analyzed by fluorescence microscopy.

The subject of a further assay is Caco2 cell monolayers. The assay can be described thus: PAR-2 AP-induced actin rearrangement in Caco2 cell monolayers. In kind it is cell-based, human. Particulars: 10^−6M, vs BSA-treated monolayers. From the text:
FIGS. 5A to 5D. Actin cytoskeleton arrangement in Caco2 cells exposed to PAR2-AP (FIG. 5A), BSA (FIG. 5B), PAR2-AP+FZI/0 (FIG. 5C), or PAR-2 AP+FZI/1 (FIG. 5D).
Effect of the Zot/zonulin inhibitor FZI/0 on PAR-2 AP-induced actin rearrangement. It has been recently reported that activation of PAR-2 receptor by PAR-2 AP promotes cytoskeletal reorganization (53). To establish whether this effect can be prevented by the synthetic Zot/zonulin peptide inhibitor, FZI/0, immunofluorescence studies were conducted in Caco2 cell monolayers. […] These cytoskeletal changes were blocked by the pre-incubation with 2×10^−6M FZI/0 (FIG. 5C), but not by the scrambled peptide FZI/1 (FIG. 5D). Therefore, PAR-2 AP and FZI/0 appear to bind to the identical structure on enterocytes.

Assay [1] concerns intestinal tissues of wild-type mice. The assay can be described thus: Intestinal TEER in wild-type mice. Particulars: vs control tissues.
In assay [2] the test system is mouse intestinal small intestine. Kind of assay: Microsnapwell assay, mouse small intestine TEER. The settings on record: luminal addition; PAR-2 AP 10^−6M, MCP-II 10^−8M; vs untreated tissues.

Entries after “also recorded” stand apart in the source; their conditions may differ.

With SLIGRL [PAR-2 AP], the “Displacement of FITC-FZI/0 by excess competitor” value is recorded as “significant reduction of FZI/0 immunofluorescent staining particles” in the assay on PAR-2 and “displaced FZI/0” with PAR-2 (listed as PAR2-AP). Besides, the “Actin cytoskeleton arrangement (stress fibers)” value with Caco2 cell monolayers was “dissolution of stress fibers”. In assay [1], the “Effect on intestinal TEER” value is listed as “significant drops in TEER; also recorded: comparable drop in intestinal resistance”. In addition, the “Effect on TEER” value in assay [2] is given as “significant drops in TEER; also recorded: decreased TEER”.

B1: MCP-II: mast cell protease II, serine proteinase of mucosal mast cells (protein, UniProt P00770 21-247, looked up)
Mast cell protease 2: IIGGVESIPHSRPYMAHLDIVTEKGLRVICGGFLISRQFVLTAAHCKGREITVILGAHDVRKRESTQQKIKVEKQIIHESYNSVPNLHDIMLLKLEKKVELTPAVNVVPLPSPSDFIHPGAMCWAAGWGKTGVRDPTSYTLREVELRIMDEKACVDYRYYEYKFQVCVGSPTTLRAAFMGDSGGPLLCAGVAHGIVSYGHPDAKPPAIFTRVSTYVPWINAVINTSS
Turning to B1, in assay [2], the “Effect on TEER” value is “significant drops in TEER; also recorded: decreased TEER”.
